Assay results published in patent US20250114374A1, “BCL-2 INHIBITORS” (Newave Pharmaceutical Inc., priority 2021, published 2025).
Like-named read-outs stand apart in the source and are kept apart here.

Columns and labels:
[1] = system: RS4; 11 cells; conditions: cited from earlier work
[2] = system: DoHH2, Granta-519 xenografts; conditions: single agent or in combination with Bendamustine and other agents; cited from earlier work
[3] = system: CLL; conditions: read-out: average EC50, apoptosis; cited from earlier work
[4] = system: CLL who have 17p deletion; conditions: Human Phase I and II, CLL with 17p deletion; cited from earlier work
[5] = system: RS4; 11 xenografts; conditions: single dose of 100 mg/kg; cited from earlier work
[6] = system: RS4; 11 with G101V mutation; assay: In vitro anti-proliferation assay (ATPlite luminescence) in BCL-2-dependent ALL cell line RS4;11 with G101V mutation; assay type: cell-based; conditions: read-out: RS411-G101V IC50
How it was run: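 RS4;11 G101V cells at about 1×10^4 per well were exposed to a range of compound concentrations for about 72 h in medium with 10% FBS. Cellular ATP was measured by ATPlite luminescence after lysis, and IC50 was derived from the dose-response.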

[7] = target: Mcl-1 (Homo sapiens, UniProt Q07820); conditions: cited from earlier work
Sequence of Mcl-1 (Q07820 whole entry): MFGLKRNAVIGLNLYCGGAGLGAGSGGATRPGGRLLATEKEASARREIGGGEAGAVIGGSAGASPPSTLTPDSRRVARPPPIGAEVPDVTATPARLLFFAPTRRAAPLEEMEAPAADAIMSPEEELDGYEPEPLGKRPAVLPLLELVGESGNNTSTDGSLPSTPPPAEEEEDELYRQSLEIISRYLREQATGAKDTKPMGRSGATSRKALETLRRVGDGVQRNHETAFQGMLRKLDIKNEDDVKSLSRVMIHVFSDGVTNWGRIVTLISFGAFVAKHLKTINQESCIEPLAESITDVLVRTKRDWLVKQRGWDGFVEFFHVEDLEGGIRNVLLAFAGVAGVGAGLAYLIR

[8] = system: circulating platelets; conditions: cited from earlier work
[9] = target: T1, Bcl-w (Homo sapiens, UniProt Q92843); conditions: cited from earlier work
T1 sequence (Q92843 1-193): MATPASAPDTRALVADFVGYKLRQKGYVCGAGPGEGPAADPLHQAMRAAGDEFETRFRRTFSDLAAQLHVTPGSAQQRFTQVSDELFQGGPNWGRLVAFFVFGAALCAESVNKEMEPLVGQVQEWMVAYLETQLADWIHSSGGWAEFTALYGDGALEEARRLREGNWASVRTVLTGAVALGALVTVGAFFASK

[10] = system: xenograft models of small-cell lung cancer and acute lymphoblastic leukemia; conditions: oral administration, alone; cited from earlier work
[11] = cited from earlier work
[12] = system: cells from lymphoma and small-cell lung carcinoma lines, primary patient-derived cells; conditions: single agent; cited from earlier work
[13] = cellular anti-proliferative IC50, about 72 hours, medium with 10% FBS, ATPlite

**Q.** For CC1(C)CCC(CN2CCN(c3ccc(C(=O)NS(=O)(=O)c4ccc(NCC5CCOCC5)c([N+](=O)[O-])c4)c(Oc4cnc5[nH]ccc5c4)c3)CC2)=C(c2ccc(Cl)cc2)C1 [ABT-199], which EC50 ([1]; RS4, 11 cells) is on record?
**A.** 8 nM

**Q.** And the “apoptosis in RS4; 11 cells” value ([1]; cytochrome c release, caspase activation, accumulation of sub-G0/G1 DNA)?
**A.** rapid apoptosis

**Q.** What about the xenograft growth [2] of the same compound?
**A.** inhibits xenograft growth

**Q.** What about the EC50 [3] of the same compound?
**A.** 3 nM

**Q.** And the clinical efficacy [4]?
**A.** highly efficacious

**Q.** And the “maximal tumor growth inhibition” value [5]?
**A.** 95%

**Q.** What about the tumor growth delay [5] of the same compound?
**A.** 152%

**Q.** What about the IC50 ([6]; Homo sapiens, RS4-11, 72 h) of the same compound?
**A.** 783 nM

**Q.** What about the “activity to Mcl-1” value [7] of the same compound?
**A.** no activity

**Q.** For CC1(C)CCC(c2ccc(Cl)cc2)=C(CN2CCN(c3ccc(C(=O)NS(=O)(=O)c4ccc(N[C@H](CCN5CCOCC5)CSc5ccccc5)c(S(=O)(=O)C(F)(F)F)c4)cc3)CC2)C1 [ABT-263], which “number of circulating platelets” value ([8]; clinical trial) is on record?
**A.** rapid, concentration-dependent decrease

**Q.** And the dose-limiting toxicity ([8]; single-agent treatment in patients)?
**A.** thrombocytopenia

**Q.** What about the Ki [9] of the same compound?
**A.** ≤ 1 nM

**Q.** And the tumor regression [10]?
**A.** complete tumor regressions

**Q.** Which results are given for CN(C)CC[C@H](CSc1ccccc1)Nc1ccc(S(=O)(=O)NC(=O)c2ccc(N3CCN(Cc4ccccc4-c4ccc(Cl)cc4)CC3)cc2)cc1[N+](=O)[O-] [ABT-737]?
**A.** aqueous solubility [11]: low; cell killing [12]: single-agent-mechanism-based killing

**Q.** Which IC50 [6, 13] does the source give for CC(C)Oc1ccccc1[C@@H]1CN(Cc2ccc(C(C)C)nc2)CCN1C1CC2(CCN(c3ccc(C(=O)NS(=O)(=O)c4cc5c(c([N+](=O)[O-])c4)N[C@H](C4CCOCC4)CO5)c(N4c5cc6cc[nH]c6nc5O[C@H]5COCC[C@@H]54)c3)CC2)C1 [Example 255, 2-[(3R,8S)-2,5-dioxa-9,15,17-triazatetracyclo[8.7.0.0^{3,8}.0^{12,16}]heptadeca-1(10),11,13,16-tetraen-9-yl]-4-{2-[(2R)-2-(2-isopropoxyphenyl)-4-[(6-isopropylpyridin-3-yl)methyl]piperazin-1-yl]-7-azaspiro[3.5]nonan-7-yl}-N-[(3R)-5-nitro-3-(oxan-4-yl)-3,4-dihydro-2H-1,4-benzoxazin-7-ylsulfonyl]benzamide] here?
**A.** 6.39 nM

**Q.** Which IC50 ([6]; Homo sapiens, RS4-11, 72 h) does the source give for CC(C)Oc1ccccc1[C@@H]1CN(Cc2ccc(C(C)(C)C)nc2)CCN1C1CC2(CCN(c3ccc(C(=O)NS(=O)(=O)c4cc5c(c([N+](=O)[O-])c4)N[C@H](C4CCOCC4)CO5)c(N4c5cc6cc[nH]c6nc5O[C@H]5COCC[C@@H]54)c3)CC2)C1 [Example 256, 4-(2-((R)-4-((6-(tert-butyl)pyridin-3-yl)methyl)-2-(2-isopropoxyphenyl)piperazin-1-yl)-7-azaspiro[3.5]nonan-7-yl)-N-(((R)-5-nitro-3-(tetrahydro-2H-pyran-4-yl)-3,4-dihydro-2H-benzo[b][1,4]oxazin-7-yl)sulfonyl)-2-((5aS,9aR)-6,7,9,9a-tetrahydro-1H-pyrano[3,4-b]pyrrolo[3′,2′:5,6]pyrido[3,2-e][1,4]oxazin-5(5aH)-yl)benzamide] here?
**A.** 11.8 nM

**Q.** For CC(C)Oc1ccccc1[C@@H]1CN(Cc2ccc(C3CC3)nc2)CCN1C1CC2(CCN(c3ccc(C(=O)NS(=O)(=O)c4cc5c(c([N+](=O)[O-])c4)N[C@H](C4CCOCC4)CO5)c(N4c5cc6cc[nH]c6nc5O[C@H]5COCC[C@@H]54)c3)CC2)C1 [Example 257, 4-(2-((R)-4-((6-cyclopropylpyridin-3-yl)methyl)-2-(2-isopropoxyphenyl)piperazin-1-yl)-7-azaspiro[3.5]nonan-7-yl)-N-(((R)-5-nitro-3-(tetrahydro-2H-pyran-4-yl)-3,4-dihydro-2H-benzo[b][1,4]oxazin-7-yl)sulfonyl)-2-((5aS,9aR)-6,7,9,9a-tetrahydro-1H-pyrano[3,4-b]pyrrolo[3′,2′:5,6]pyrido[3,2-e][1,4]oxazin-5(5aH)-yl)benzamide], which IC50 ([6]; Homo sapiens, RS4-11, 72 h) is on record?
**A.** 3.9 nM

**Q.** Which IC50 ([6]; Homo sapiens, RS4-11, 72 h) does the source give for COc1ccc(CN2CCN(C3CC4(CCN(c5ccc(C(=O)NS(=O)(=O)c6cc7c(c([N+](=O)[O-])c6)N[C@H](C6CCOCC6)CO7)c(N6c7cc8cc[nH]c8nc7O[C@H]7COCC[C@@H]76)c5)CC4)C3)[C@H](c3ccccc3OC(C)C)C2)cn1 [Example 258, 4-(2-((R)-2-(2-isopropoxyphenyl)-4-((6-methoxypyridin-3-yl)methyl)piperazin-1-yl)-7-azaspiro[3.5]nonan-7-yl)-N-(((R)-5-nitro-3-(tetrahydro-2H-pyran-4-yl)-3,4-dihydro-2H-benzo[b][1,4]oxazin-7-yl)sulfonyl)-2-((5aS,9aR)-6,7,9,9a-tetrahydro-1H-pyrano[3,4-b]pyrrolo[3′,2′:5,6]pyrido[3,2-e][1,4]oxazin-5(5aH)-yl)benzamide] here?
**A.** 11.7 nM

**Q.** For CNc1ccc(CN2CCN(C3CC4(CCN(c5ccc(C(=O)NS(=O)(=O)c6cc7c(c([N+](=O)[O-])c6)N[C@H](C6CCOCC6)CO7)c(N6c7cc8cc[nH]c8nc7O[C@H]7COCC[C@@H]76)c5)CC4)C3)[C@H](c3ccccc3OC(C)C)C2)cn1 [Example 259, 2-[(3R,8S)-2,5-dioxa-9,15,17-triazatetracyclo[8.7.0.0^{3,8}.0^{12,16}]heptadeca-1(10),11,13,16-tetraen-9-yl]-4-{2-[(2R)-2-(2-isopropoxyphenyl)-4-{[6-(methylamino)pyridin-3-yl]methyl}piperazin-1-yl]-7-azaspiro[3.5]nonan-7-yl}-N-[(3R)-5-nitro-3-(oxan-4-yl)-3,4-dihydro-2H-1,4-benzoxazin-7-ylsulfonyl]benzamide], which IC50 [6, 13] is on record?
**A.** 9.72 nM

**Q.** For CC(C)Oc1ccccc1[C@@H]1CN(Cc2ccc(N3CCOC[C@@H]3C)nc2)CCN1C1CC2(CCN(c3ccc(C(=O)NS(=O)(=O)c4cc5c(c([N+](=O)[O-])c4)N[C@H](C4CCOCC4)CO5)c(N4c5cc6cc[nH]c6nc5O[C@H]5COCC[C@@H]54)c3)CC2)C1 [Example 260, 2-[(3R,8S)-2,5-dioxa-9,15,17-triazatetracyclo[8.7.0.0^{3,8}.0^{12,16}]heptadeca-1(10),11,13,16-tetraen-9-yl]-4-{2-[(2R)-2-(2-isopropoxyphenyl)-4-({6-[(3S)-3-methylmorpholin-4-yl]pyridin-3-yl}methyl)piperazin-1-yl]-7-azaspiro[3.5]nonan-7-yl}-N-[(3R)-5-nitro-3-(oxan-4-yl)-3,4-dihydro-2H-1,4-benzoxazin-7-ylsulfonyl]benzamide], which IC50 [6, 13] is on record?
**A.** 8.65 nM

**Q.** With CC(C)Oc1ccccc1[C@@H]1CN(Cc2ccc(C(F)(F)F)nc2)CCN1C1CC2(CCN(c3ccc(C(=O)NS(=O)(=O)c4cc5c(c([N+](=O)[O-])c4)N[C@H](C4CCOCC4)CO5)c(N4c5cc6cc[nH]c6nc5O[C@H]5COCC[C@@H]54)c3)CC2)C1 [Example 261, 2-[(3R,8S)-2,5-dioxa-9,15,17-triazatetracyclo[8.7.0.0^{3,8}.0^{12,16}]heptadeca-1(10),11,13,16-tetraen-9-yl]-4-{2-[(2R)-2-(2-isopropoxyphenyl)-4-{[6-(trifluoromethyl)pyridin-3-yl]methyl}piperazin-1-yl]-7-azaspiro[3.5]nonan-7-yl}-N-[(3R)-5-nitro-3-(oxan-4-yl)-3,4-dihydro-2H-1,4-benzoxazin-7-ylsulfonyl]benzamide] as the compound, how does the IC50 [6, 13] read?
**A.** 3.87 nM

**Q.** Which IC50 [6, 13] does the source give for CC(C)Oc1ccccc1[C@@H]1CN(Cc2ccc(C#N)nc2)CCN1C1CC2(CCN(c3ccc(C(=O)NS(=O)(=O)c4cc5c(c([N+](=O)[O-])c4)N[C@H](C4CCOCC4)CO5)c(N4c5cc6cc[nH]c6nc5O[C@H]5COCC[C@@H]54)c3)CC2)C1 [Example 262, 4-{2-[(2R)-4-[(6-cyanopyridin-3-yl)methyl]-2-(2-isopropoxyphenyl)piperazin-1-yl]-7-azaspiro[3.5]nonan-7-yl}-2-[(3R,8S)-2,5-dioxa-9,15,17-triazatetracyclo[8.7.0.0^{3,8}.0^{12,16}]heptadeca-1(10),11,13,16-tetraen-9-yl]-N-[(3R)-5-nitro-3-(oxan-4-yl)-3,4-dihydro-2H-1,4-benzoxazin-7-ylsulfonyl]benzamide] here?
**A.** 6.43 nM
